Measurements reported in patent publication US5620958A, “Bradykinin antagonists” (Coretech, Inc., priority 1994, dated 1997).
Like-named read-outs stand apart in the source and are kept apart here. Peptide text beside a SMILES is read from it.

How the values were obtained:
[1] = molecular target: T1, NK2 receptor (Oryctolagus cuniculus, UniProt P79218); assay: rabbit pulmonary artery, reduction of neurokinin A contraction; type: cell-based; conditions: Table R; negative log of molar concentration reducing sustained neurokinin A contraction by 50%; read-out: NK2 Rabbit Pulm Art log (converted)
T1 construct: reduce a sustained contractile response produced by neurokinin A by 50%; from tissue; host or cells: contractile tissue preparation (rabbit pulmonary artery per the earlier reading)
T1 sequence (P79218 1-384): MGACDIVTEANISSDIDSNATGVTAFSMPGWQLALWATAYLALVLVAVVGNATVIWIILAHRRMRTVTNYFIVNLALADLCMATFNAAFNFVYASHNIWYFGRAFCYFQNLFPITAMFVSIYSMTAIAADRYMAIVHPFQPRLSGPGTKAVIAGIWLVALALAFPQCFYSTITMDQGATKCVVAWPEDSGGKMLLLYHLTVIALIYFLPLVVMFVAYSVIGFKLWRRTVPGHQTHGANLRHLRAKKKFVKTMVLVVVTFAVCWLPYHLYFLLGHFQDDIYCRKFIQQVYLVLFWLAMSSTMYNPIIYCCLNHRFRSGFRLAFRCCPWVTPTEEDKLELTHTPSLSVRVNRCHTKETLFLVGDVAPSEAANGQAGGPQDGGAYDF
Description: The heterodimers thus obtained were tested for activity as heretofore described, the results being shown in Table R. In this Table -log [M] represents the negative log of the molar concentration of the antagonist necessary to reduce a sustained contractile response produced by neurokinin A by 50%.

[2] = molecular target: T2, BK2 receptor (Rattus norvegicus, UniProt P25023); assay: cell-based
T2 sequence (P25023 1-396): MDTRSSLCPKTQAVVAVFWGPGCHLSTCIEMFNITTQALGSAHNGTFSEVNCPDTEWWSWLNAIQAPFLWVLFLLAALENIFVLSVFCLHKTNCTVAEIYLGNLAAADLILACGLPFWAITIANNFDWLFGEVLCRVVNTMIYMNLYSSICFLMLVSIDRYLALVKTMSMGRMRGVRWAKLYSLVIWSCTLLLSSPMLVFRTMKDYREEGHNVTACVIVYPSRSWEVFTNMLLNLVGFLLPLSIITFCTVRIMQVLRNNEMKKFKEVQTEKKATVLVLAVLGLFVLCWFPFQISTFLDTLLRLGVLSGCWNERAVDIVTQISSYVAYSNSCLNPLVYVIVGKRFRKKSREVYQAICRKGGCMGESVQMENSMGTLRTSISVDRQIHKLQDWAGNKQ

[3] = molecular target: T3, BK2 receptor (Cavia porcellus, UniProt O70526); assay: guinea-pig ileum (GPI) in vitro, antagonism of BK; type: cell-based; conditions: Table E
T3 construct: tested for activity on guinea pig ileum in vitro on the standard tissue bath/strain gauge system; from tissue; host or cells: guinea pig ileum
T3 sequence (O70526 1-372): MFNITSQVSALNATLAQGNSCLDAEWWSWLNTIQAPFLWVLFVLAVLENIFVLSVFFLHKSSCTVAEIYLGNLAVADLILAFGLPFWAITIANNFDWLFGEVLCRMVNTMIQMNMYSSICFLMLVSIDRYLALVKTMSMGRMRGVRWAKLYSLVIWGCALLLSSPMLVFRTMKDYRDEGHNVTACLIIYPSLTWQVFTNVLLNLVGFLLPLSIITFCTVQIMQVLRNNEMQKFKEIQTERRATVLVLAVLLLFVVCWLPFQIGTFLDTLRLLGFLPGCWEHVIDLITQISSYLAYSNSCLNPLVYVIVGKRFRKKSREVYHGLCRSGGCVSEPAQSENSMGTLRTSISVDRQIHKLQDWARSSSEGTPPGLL
How it was run: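 Isolated guinea-pig ileum in tissue bath with strain-gauge recording; antagonism of bradykinin contractions. Potency expressed as pA2 (Schild method: negative log molar antagonist concentration causing two-fold agonist potency shift); percentage recovery also determined.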

[4] = molecular target: T4, BK1 receptor (Oryctolagus cuniculus, UniProt P48748); assay: rabbit aorta in vitro, reversal of des-Arg^9 -BK contraction; type: cell-based; conditions: Table G; negative log of molar concentration causing 50% reversal of 10^-7 M des-Arg^9 -BK contraction
T4 construct: when administered to an intact animal; from tissue; host or cells: whole rabbit (systemic arterial blood pressure), LPS-pretreated
T4 sequence (P48748 1-352): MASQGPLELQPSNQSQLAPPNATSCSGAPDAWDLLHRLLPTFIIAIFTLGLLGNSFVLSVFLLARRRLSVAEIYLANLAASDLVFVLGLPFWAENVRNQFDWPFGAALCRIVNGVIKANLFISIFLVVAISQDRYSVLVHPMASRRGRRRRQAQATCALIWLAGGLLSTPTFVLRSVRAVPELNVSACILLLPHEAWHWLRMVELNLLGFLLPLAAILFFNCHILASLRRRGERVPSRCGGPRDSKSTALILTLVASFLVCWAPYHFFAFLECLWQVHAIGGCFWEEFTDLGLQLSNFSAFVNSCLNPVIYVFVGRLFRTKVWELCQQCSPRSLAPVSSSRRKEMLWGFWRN

[5] = molecular target: T2, BK2 receptor; conditions: Table C, rat uterus; P.A. = partial antagonist

Compound	IC50 [1] [nM]	Kb [2] [nM]	GPI pA2 [3]	BK1 RABBIT AORTA IC50 [4]	pA2 DIMER [5]	Kb ([2]; BK2 RAT UTERUS pA2, Table G) [nM]	Kb ([2]; pA2 (UTERUS), Table D, effect of linker length) [nM]
CC(C)C[C@H](NC(=O)[C@@H](Cc1ccccc1)NC(=O)[C@H](CSC1CC(=O)N(CCCCCCN2C(=O)CC(SC[C@H](N)C(=O)N[C@@H](Cc3ccc(O)cc3)C(=O)N[C@H](Cc3c[nH]c4ccccc34)C(=O)N[C@H](C(=O)N[C@H](Cc3c[nH]c4ccccc34)C(=O)N[C@H](Cc3c[nH]c4ccccc34)C(=O)N[C@@H](CCCNC(=N)N)C(N)=O)C(C)C)C2=O)C1=O)NC(=O)[C@H](Cc1ccccc1)NC(=O)CNC(=O)[C@@H]1C[C@@H](O)CN1C(=O)[C@@H]1CCCN1C(=O)[C@H](CCCNC(=N)N)NC(=O)[C@H](N)CCCNC(=N)N)C(=O)N[C@@H](CCCNC(=N)N)C(=O)O (stereo partly drawn) [CP-0411] (HELM PEPTIDE1{[dR].R.P.[Hyp].G.F.C.[dF].L.R}|PEPTIDE2{C.Y.[dW].V.[dW].[dW].R.[am]}|CHEM1{[O=C1CC([*:1])C(=O)N1CCCCCCN1C(=O)CC([*:2])C1=O]}$PEPTIDE1,CHEM1,7:R3-1:R1|PEPTIDE2,CHEM1,1:R3-1:R2$$$V2.0; N-terminus assumed)	3160	31.6					
CC(C)C[C@H](NC(=O)[C@@H](Cc1ccccc1)NC(=O)[C@H](CSC1CC(=O)N(CCCCCCN2C(=O)CC(SC[C@H](NC(=O)[C@@H](Cc3c[nH]c4ccccc34)NC(=O)[C@H](Cc3ccc(O)cc3)NC(=O)[C@@H](N)CC(=O)O)C(=O)N[C@H](Cc3c[nH]c4ccccc34)C(=O)N[C@H](Cc3c[nH]c4ccccc34)C(=O)N[C@@H](CCCNC(=N)N)C(N)=O)C2=O)C1=O)NC(=O)[C@H](Cc1ccccc1)NC(=O)CNC(=O)[C@@H]1C[C@@H](O)CN1C(=O)[C@@H]1CCCN1C(=O)[C@H](CCCNC(=N)N)NC(=O)[C@H](N)CCCNC(=N)N)C(=O)N[C@@H](CCCNC(=N)N)C(=O)O (stereo partly drawn) [CP-0414] (HELM PEPTIDE1{[dR].R.P.[Hyp].G.F.C.[dF].L.R}|PEPTIDE2{D.Y.[dW].C.[dW].[dW].R.[am]}|CHEM1{[O=C1CC([*:1])C(=O)N1CCCCCCN1C(=O)CC([*:2])C1=O]}$PEPTIDE1,CHEM1,7:R3-1:R1|PEPTIDE2,CHEM1,4:R3-1:R2$$$V2.0; N-terminus assumed)	6310	15.8					
CC(C)C[C@H](NC(=O)[C@@H](Cc1ccccc1)NC(=O)[C@H](CSC1CC(=O)N(CCCCCCN2C(=O)CC(SC[C@H](NC(=O)[C@H](Cc3ccccc3)NC(=O)CNC(=O)[C@@H]3C[C@@H](O)CN3C(=O)[C@@H]3CCCN3C(=O)[C@H](CCCNC(=N)N)NC(=O)[C@H](N)CCCNC(=N)N)C(=O)N[C@H](Cc3ccccc3)C(=O)N[C@@H](CC(C)C)C(=O)N[C@@H](CCCNC(=N)N)C(=O)O)C2=O)C1=O)NC(=O)[C@H](Cc1ccccc1)NC(=O)CNC(=O)[C@@H]1C[C@@H](O)CN1C(=O)[C@@H]1CCCN1C(=O)[C@H](CCCNC(=N)N)NC(=O)[C@H](N)CCCNC(=N)N)C(=O)N[C@@H](CCCNC(=N)N)C(=O)O (stereo partly drawn) [CP-0127] (HELM PEPTIDE1{[dR].R.P.[Hyp].G.F.C.[dF].L.R}|PEPTIDE2{[dR].R.P.[Hyp].G.F.C.[dF].L.R}|CHEM1{[O=C1CC([*:1])C(=O)N1CCCCCCN1C(=O)CC([*:2])C1=O]}$PEPTIDE1,CHEM1,7:R3-1:R1|PEPTIDE2,CHEM1,7:R3-1:R2$$$V2.0)			7.7 ± 0.2	Inactive	8.8 ± 0.3	3.16	1.58
CC(C)C[C@H](NC(=O)[C@@H](Cc1ccccc1)NC(=O)[C@H](CSC1CC(=O)N(CCCCCCN2C(=O)CC(SC[C@H](NC(=O)[C@@H](Cc3c[nH]c4ccccc34)NC(=O)[C@@H](NC(=O)[C@@H](Cc3c[nH]c4ccccc34)NC(=O)[C@H](Cc3ccc(O)cc3)NC(=O)[C@@H](N)CC(=O)O)C(C)C)C(=O)N[C@@H](CCCNC(=N)N)C(N)=O)C2=O)C1=O)NC(=O)[C@H](Cc1ccccc1)NC(=O)CNC(=O)[C@@H]1C[C@@H](O)CN1C(=O)[C@@H]1CCCN1C(=O)[C@H](CCCNC(=N)N)NC(=O)[C@H](N)CCCNC(=N)N)C(=O)N[C@@H](CCCNC(=N)N)C(=O)O (stereo partly drawn) [CP-0416] (HELM PEPTIDE1{[dR].R.P.[Hyp].G.F.C.[dF].L.R}|PEPTIDE2{D.Y.[dW].V.[dW].C.R.[am]}|CHEM1{[O=C1CC([*:1])C(=O)N1CCCCCCN1C(=O)CC([*:2])C1=O]}$PEPTIDE1,CHEM1,7:R3-1:R1|PEPTIDE2,CHEM1,6:R3-1:R2$$$V2.0; N-terminus assumed)	2510	2					
CC(C)C[C@H](NC(=O)[C@@H](Cc1ccccc1)NC(=O)[C@H](CSC1CC(=O)N(CCCCCCN2C(=O)CC(SC[C@H](NC(=O)[C@@H](Cc3c[nH]c4ccccc34)NC(=O)[C@@H](Cc3c[nH]c4ccccc34)NC(=O)[C@@H](NC(=O)[C@@H](Cc3c[nH]c4ccccc34)NC(=O)[C@H](Cc3ccc(O)cc3)NC(=O)[C@@H](N)CC(=O)O)C(C)C)C(N)=O)C2=O)C1=O)NC(=O)[C@H](Cc1ccccc1)NC(=O)CNC(=O)[C@@H]1C[C@@H](O)CN1C(=O)[C@@H]1CCCN1C(=O)[C@H](CCCNC(=N)N)NC(=O)[C@H](N)CCCNC(=N)N)C(=O)N[C@@H](CCCNC(=N)N)C(=O)O (stereo partly drawn) [CP-0417] (HELM PEPTIDE1{[dR].R.P.[Hyp].G.F.C.[dF].L.R}|PEPTIDE2{D.Y.[dW].V.[dW].[dW].C.[am]}|CHEM1{[O=C1CC([*:1])C(=O)N1CCCCCCN1C(=O)CC([*:2])C1=O]}$PEPTIDE1,CHEM1,7:R3-1:R1|PEPTIDE2,CHEM1,7:R3-1:R2$$$V2.0)	2510	10					
CC(C)C[C@H](NC(=O)[C@@H](Cc1ccccc1)NC(=O)[C@H](CSC1CC(=O)N(CCCCCCN2C(=O)CC(SC[C@H](NC(=O)[C@@H](NC(=O)[C@@H](Cc3c[nH]c4ccccc34)NC(=O)[C@H](Cc3ccc(O)cc3)NC(=O)[C@@H](N)CC(=O)O)C(C)C)C(=O)N[C@H](Cc3c[nH]c4ccccc34)C(=O)N[C@@H](CCCNC(=N)N)C(N)=O)C2=O)C1=O)NC(=O)[C@H](Cc1ccccc1)NC(=O)CNC(=O)[C@@H]1C[C@@H](O)CN1C(=O)[C@@H]1CCCN1C(=O)[C@H](CCCNC(=N)N)NC(=O)[C@H](N)CCCNC(=N)N)C(=O)N[C@@H](CCCNC(=N)N)C(=O)O (stereo partly drawn) [CP-0415] (HELM PEPTIDE1{[dR].R.P.[Hyp].G.F.C.[dF].L.R}|PEPTIDE2{D.Y.[dW].V.C.[dW].R.[am]}|CHEM1{[O=C1CC([*:1])C(=O)N1CCCCCCN1C(=O)CC([*:2])C1=O]}$PEPTIDE1,CHEM1,7:R3-1:R1|PEPTIDE2,CHEM1,5:R3-1:R2$$$V2.0; N-terminus assumed)	6310	15.8					
